Assay results as given in US10550101B2, “Crystalline forms of mesylate salt of pyridinyl amino pyrimidine derivative, preparation methods therefor, and applications thereof” (SHANGHAI ALLIST PHARMACEUTICAL AND MEDICAL TECHNOLOGY …, priority 2016, dated 2020).
In brackets after ≈: the same amount, converted by molar mass. Counter-ions that a name gives are not always drawn. Like-named read-outs stand apart in the source and are kept apart here.

Columns and labels:
[1] = Drug absorption experiment in SD rats, intragastric administration (incl. absolute bioavailability); assay type: in vivo, SD rats (Sprague Dawley rats); settings: for bioavailability / F (absolute bioavailability): from AUC0-t after dosage calibration; for bioavailability: read-out: F (absolute bioavailability); for F (absolute bioavailability): intragastric 10 mg/kg vs intravenous 2.5 mg/kg
Procedure: The determination method for the absolute bioavailability of the intragastric administration of the crystal forms of the mesylate salt of the compound of formula (I) is as follows: • For intravenous administration: Healthy SD rats are randomly grouped. The tested substance is administered in a certain dosage D through the intravenous administration. The blood samples are collected through the retrobulbar venous plexus before the administration and 5 min, 15 min, 0.5 h, 1.0 h, 2.0 h, 4.0 h, 8.0 h, 12 h and 24 h after the administration, and separated to give plasmas. […] The tested substance is administered in a certain dosage D through the intragastric administration.
After dosage calibration, the absolute bioavailability F is calculated by the area under the drug concentration-time curve (AUC0-t). The calculation equation is as follows: F=(AUCintragastric×Dintravenous)/(AUCintravenous×Dintragastric)×100%.
For intragastric administration: 20 healthy (half male and half female) SD rats with 200-280 g body weight, provided by Shanghai Sippr-BK laboratory animal Co. Ltd., were assigned randomly to 5 groups.
After dosage calibration, the absolute bioavailability F was obtained by calculation of AUC0-t. The calculation equation was as follows: F=(AUCintragastric×Dintravenous)/(AUCintravenous×Dintragastric)×100%. The obtained absolute bioavailability F data are shown in the above table 2.

[2] = Drug absorption experiment in SD rats, intravenous administration; assay type: in vivo, SD rats (Sprague Dawley rats); settings: for half-life / AUC(0-t) / Cmax: plasma
Procedure: The determination method for the absolute bioavailability of the intragastric administration of the crystal forms of the mesylate salt of the compound of formula (I) is as follows: • For intravenous administration: Healthy SD rats are randomly grouped. The tested substance is administered in a certain dosage D through the intravenous administration. The blood samples are collected through the retrobulbar venous plexus before the administration and 5 min, 15 min, 0.5 h, 1.0 h, 2.0 h, 4.0 h, 8.0 h, 12 h and 24 h after the administration, and separated to give plasmas. The concentration of the drug in plasma is determined with the liquid chromatography-tandem mass spectrometry method to give a drug concentration-time curve. • For intragastric administration: Healthy SD rats are randomly grouped. The tested substance is administered in a certain dosage D through the intragastric administration. The intravenous blood samples are collected through the rat's retrobulbar venous plexus before the administration and 0.5, 1.0, 2.0, 4.0, 6.0, 8.0, 10, 12 and 24 h after the administration, and separated to give plasmas. The concentration of the drug in plasma is determined with the liquid chromatography-tandem mass spectrometry method to give a drug concentration-time curve.
For intravenous administration: 20 healthy (half male and half female) SD rats with 200-280 g body weight, provided by Shanghai Sippr-BK laboratory animal Co. Ltd., were assigned randomly to 5 groups. […] 0.2 ml of the intravenous blood samples were collected through the rat's retrobulbar venous plexus before the administration and 5 min, 15 min, 0.5 h, 1.0 h, 2.0 h, 4.0 h, 8.0 h, 12 h and 24 h after the administration, and separated to give plasmas.
The concentration of the drug in plasma was determined with the liquid chromatography-tandem mass spectrometry method to give a drug concentration-time curve.
T1/2: elimination half-life; Cmax: maximum drug concentration in plasma; AUC0-t: area under drug concentration-time curve.

[3] = Solubility test under different pH buffering solutions; assay type: physicochemical; settings: for Solubility: 24 h; for solubilities compared with the compound of formula (I) of Example 1: solvent pH values 1.0, 4.5 and 6.8, conclusion in words
Procedure: The solubilities of the crystal forms of the mesylate salt of the compound of formula (I) may be measured according to the following method: • Each substance is weighed in an appropriate amount and placed in a brown flask. Different solvents are added. The mixtures are ultrasonically treated for 20 seconds. After the mixtures are uniformly dispersed, the mixtures are shaked at 25° C., 200 rpm for 24 h, then removed, and separated by centrifugation at 12000 rpm for 10 mins. The supernatants are removed by suction and diluted to a certain fold with the corresponding solvent. Then, the concentrations of the resulting solutions are determined by HPLC and their pH values are measured.
The compound of formula (I) of Example 1, Form I of the mesylate salt of the compound of formula (I), and Form II of the mesylate salt of the compound of formula (I) were investigated for the solubilities under different pH buffering solutions.
Test method: Each substance was weighed in an appropriate amount and placed in a brown flask. Different solvents were added. The mixtures were ultrasonically treated for 20 seconds. After the mixtures were uniformly dispersed, the mixtures were shaked at 25° C., 200 rpm for 24 h, then removed, and separated by centrifugation at 12000 rpm for 10 mins. The supernatants were removed by suction and diluted to a certain folds with the corresponding solvent. Then, the concentrations of the resulting solutions were determined by HPLC and their pH values were measured.

[4] = Acetate buffering solution at pH = 4.5, 25° C.
[5] = Phosphate buffering solution at pH = 6.8, 25° C.
[6] = intragastric, dosage 10 mg/kg, plasma

C=CC(=O)Nc1cc(Nc2nccc(-c3cn(C)c4ccccc34)n2)c(OC(C)C)nc1N(C)CCN(C)C [Comparative Example 1, reference compound]
bioavailability ([1]; both sexes, Sprague-Dawley, rat, plasma, po, 6 mg/kg, intragastric 6 mg/kg vs intravenous 3.0 mg/kg): 8.9% | half-life ([2]; both sexes, Sprague-Dawley, rat, iv, 3 mg/kg, dosage 3.0 mg/kg, elimination half-life): 2.72 h | AUC(0-t) ([2]; both sexes, Sprague-Dawley, rat, iv, 3 mg/kg, dosage 3.0 mg/kg, read-out: AUC0-t): 438 ng·h/mL | Cmax ([2]; both sexes, Sprague-Dawley, rat, iv, 3 mg/kg, dosage 3.0 mg/kg, read-out: Cmax): 328 ng/mL

C=CC(=O)Nc1cc(Nc2ncc(Cl)c(-c3cn(C)c4ccccc34)n2)c(OC(C)C)nc1N(C)CCN(C)C [Comparative Example 2, reference compound]
bioavailability ([1]; both sexes, Sprague-Dawley, rat, plasma, po, 10 mg/kg, intragastric 10 mg/kg vs intravenous 4.0 mg/kg): 8.5% | half-life ([2]; both sexes, Sprague-Dawley, rat, iv, 4 mg/kg, dosage 4.0 mg/kg, elimination half-life): 1.71 h | AUC(0-t) ([2]; both sexes, Sprague-Dawley, rat, iv, 4 mg/kg, dosage 4.0 mg/kg, read-out: AUC0-t): 811 ng·h/mL | Cmax ([2]; both sexes, Sprague-Dawley, rat, iv, 4 mg/kg, dosage 4.0 mg/kg, read-out: Cmax): 630 ng/mL

C=CC(=O)Nc1cc(Nc2nccc(-c3cn(C)c4ccccc34)n2)c(OCC(F)(F)F)nc1N(C)CCN(C)C [Example 1, N-{2-{[2-(dimethylamino)ethyl](methyl)amino}-6-(2,2,2-trifluoroethoxy)-5-{[4-(1-methyl-1H-indol-3-yl)pyrimidin-2-yl]amino}pyridin-3-yl}acrylamide]
Solubility ([3]; 0.1N HCl, 25° C.): >30 mg/mL | Solubility [3, 4]: 0.62 mg/mL (≈ 1090 µM) | Solubility [3, 5]: 0.0003 mg/mL (≈ 0.528 µM)

C=CC(=O)Nc1cc(Nc2nccc(-c3cn(C)c4ccccc34)n2)c(OCC(F)(F)F)nc1N(C)CCN(C)C [Form I, Form I of the Mesylate Salt of N-{2-{[2-(dimethylamino)ethyl](methyl)amino}-6-(2,2,2-trifluoroethoxy)-5-{[4-(1-methyl-1H-indol-3-yl)pyrimidin-2-yl]amino}pyridin-3-yl}acrylamide]
half-life ([1]; both sexes, Sprague-Dawley, rat, plasma, po, 10 mg/kg, intragastric, dosage 10 mg/kg, elimination half-life): 7.98 h | AUC(0-t) ([1]; both sexes, Sprague-Dawley, rat, plasma, po, 10 mg/kg, intragastric, dosage 10 mg/kg, plasma, read-out: AUC0-t): 613 ng·h/mL | Cmax ([1]; both sexes, Sprague-Dawley, rat, plasma, po, 10 mg/kg, intragastric, dosage 10 mg/kg, plasma, read-out: Cmax): 45.3 ng/mL | F (absolute bioavailability) [1]: 49.8% | Solubility ([3]; 0.1N HCl, 25° C.): >100 mg/mL | Solubility [3, 4]: 29.05 mg/mL | Solubility [3, 5]: 0.02 mg/mL | solubilities compared with the compound of formula (I) of Example 1 [3]: remarkably better | half-life ([2]; both sexes, Sprague-Dawley, rat, iv, 2.5 mg/kg, dosage 2.5 mg/kg, elimination half-life): 4.73 h | AUC(0-t) ([2]; both sexes, Sprague-Dawley, rat, iv, 2.5 mg/kg, dosage 2.5 mg/kg, read-out: AUC0-t): 308 ng·h/mL | Cmax ([2]; both sexes, Sprague-Dawley, rat, iv, 2.5 mg/kg, dosage 2.5 mg/kg, read-out: Cmax): 105 ng/mL

C=CC(=O)Nc1cc(Nc2nccc(-c3cn(C)c4ccccc34)n2)c(OCC(F)(F)F)nc1N(C)CCN(C)C [Form II, Form II of the Mesylate Salt of N-{2-{[2-(dimethylamino)ethyl](methyl)amino}-6-(2,2,2-trifluoroethoxy)-5-{[4-(1-methyl-1H-indol-3-yl)pyrimidin-2-yl]amino}pyridin-3-yl}acrylamide]
F (absolute bioavailability) [1]: 39.1% | AUC(0-t) [1, 6]: 566.3 ng·h/mL | Cmax [1, 6]: 36.7 ng/mL | Solubility ([3]; 0.1N HCl, 25° C.): >100 mg/mL | Solubility [3, 4]: 61.14 mg/mL | Solubility [3, 5]: 0.02 mg/mL | solubilities compared with the compound of formula (I) of Example 1 [3]: remarkably better | T1/2 ([2]; dosage 2.5 mg/kg, elimination half-life): 4.83 h | AUC(0-t) ([2]; dosage 2.5 mg/kg): 362.0 ng·h/mL | Cmax ([2]; dosage 2.5 mg/kg): 125.4 ng/mL
